Assay results as given in publication PMC6176332, “Studies on the Interaction between Three Small Flavonoid Molecules and Bovine Lactoferrin” (BioMed Research International, 2018).

Molecular target: T1, bovine lactoferrin (BLF) (Bos taurus, UniProt P24627)
T1 construct: gene LTF
Test: intrinsic fluorescence quenching (excitation […] nm), double-log plot
Format: binding
Conditions: 0.05 M phosphate buffer, pH 7.4, 300 K, about 1% ethanol; n = 1.076; in 1/M

T1 sequence (P24627 20-708): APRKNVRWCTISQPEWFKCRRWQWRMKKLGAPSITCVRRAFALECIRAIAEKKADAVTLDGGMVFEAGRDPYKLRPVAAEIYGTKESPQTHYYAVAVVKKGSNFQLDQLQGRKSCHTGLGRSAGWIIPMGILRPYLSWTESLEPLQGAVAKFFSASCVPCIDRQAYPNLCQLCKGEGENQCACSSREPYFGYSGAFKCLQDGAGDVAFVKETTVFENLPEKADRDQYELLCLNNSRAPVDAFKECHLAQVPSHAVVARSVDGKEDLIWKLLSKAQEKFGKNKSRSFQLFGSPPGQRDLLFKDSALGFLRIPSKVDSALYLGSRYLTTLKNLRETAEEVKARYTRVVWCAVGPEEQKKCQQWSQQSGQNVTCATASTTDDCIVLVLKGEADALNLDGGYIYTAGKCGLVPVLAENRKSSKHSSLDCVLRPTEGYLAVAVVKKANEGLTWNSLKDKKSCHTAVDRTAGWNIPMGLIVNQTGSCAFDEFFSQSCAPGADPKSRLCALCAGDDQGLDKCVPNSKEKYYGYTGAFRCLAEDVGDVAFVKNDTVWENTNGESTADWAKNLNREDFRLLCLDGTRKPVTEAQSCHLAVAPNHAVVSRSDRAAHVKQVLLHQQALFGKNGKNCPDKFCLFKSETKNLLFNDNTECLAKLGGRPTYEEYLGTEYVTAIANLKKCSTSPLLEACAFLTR

Ka (×10^4M^-1): 3.05 ×10^4
Structure (SMILES): O=C1C[C@@H](c2ccc(O)cc2)Oc2cc(O)cc(O)c21 [Naringenin]
